{"source": "patent US20220062479A1", "about": "“Disinfection Bomb” (priority 2020, published 2022)", "origin": "cited, not measured here", "key": {"Staphylococcus aureus": {"tested_on": "Staphylococcus aureus", "details": "by way of background"}, "Streptococcus pyogenes": {"tested_on": "Streptococcus pyogenes", "details": "by way of background"}, "Pseudomonas aeruginosa": {"tested_on": "Pseudomonas aeruginosa", "details": "it has been shown"}, "E. coli": {"tested_on": "E. coli", "details": "it has been shown"}}, "data": [{"molecule": "CCO", "note": "[ethanol]", "values": [{"measurement": "contact time to kill Staphylococcus aureus", "setting": "Staphylococcus aureus", "value": "at least 10 seconds"}, {"measurement": "contact time to kill Streptococcus pyogenes", "setting": "Streptococcus pyogenes", "value": "at least 10 seconds"}, {"measurement": "contact time that allows the ethanol to kill Pseudomonas aeruginosa", "setting": "Pseudomonas aeruginosa", "value": 10, "unit": "s"}, {"measurement": "contact time that allows the ethanol to kill E. coli", "setting": "E. coli", "value": 10, "unit": "s"}]}]}
